Patent publication US8232407B2, “Nitrogenous heterocyclic compounds with insecticidal activity, and the preparation and use thereof” (East China University of Science and Technology, priority 2008, dated 2012)

Key:
Nilaparvata lugens = experiment: Insecticidal activities to plant hopper, spraying method; format: in vivo; settings: in vivo
Protocol: (§1) Mortality (%)=(the number of the survival aphis in control group−the number of the survival aphis in the treatment group)/the number of the survival aphis in control group×100%
(2): Insecticidal Activities to Plant hopper
Plant hopper (Nilaparvata lugens), which belongs to Homoptera and has a piercing-sucking mouthpart, is a common insect for agricultural plant. Nilaparvata lugens was tested by spraying method.
Procedure: the test compound was exactly formulated with acetone to form solutions having concentrations of 500, 250, 100, 50, 25, 12.5, 6.25, 3.13, 1.57 and 0.79 ppm, respectively. Aqueous acetone solution was used as control. Each treatment was repeated for 3 tumblers (3 times). Two ml of solution was sprayed uniformly to each tumbler with a mini manual sprayer. 10 insects were introduced to every basin 6 hours before spraying. Three series of experiments were conducted. The number of killed insects was counted after 24 hours to calculate the mortality according to the above mentioned formula.

Aphis craccivoral = experiment: Insecticidal activities to aphids, immersion method; format: in vivo; settings: in vivo
Protocol: (1): Insecticidal Activities to Aphids
Aphis (Aphis craccivoral), which belongs to Homoptera and has a piercing-sucking mouthpart, is a common insect for agricultural plant. Aphis craccivoral was tested by immersion method.
Procedure: exactly weighed various samples were independently added to N,N-dimethylformamide to form 10 g/L stock solutions. The stock solutions were diluted with 0.2 mL/L aqueous Triton X-100 solution to a concentration of 500 ppm. After stably sucking on bean sprout, the wingless adult aphis together with bean sprout were dipped into 500 ppm dilution, taken out after 5 seconds, and the excess dilution was sucked off with bibulous paper. The treated wingless adult aphis was incubated in clean vessel at a constant temperature of 23° C. Each concentration was repeated for 3 times and the control group was treated with 0.2mL/L aqueous Triton X-100 solution. The number of killed aphis was counted after 24 hours and the mortality was to calculated according to the following formula:
as §1

CCN(Cc1ccc(Cl)nc1)C(=NC)C(=Cc1ccsc1)[N+](=O)[O-] [Compound 185]
Nilaparvata lugens Mortality (%) 500 ppm (Nilaparvata lugens): 100% | Aphis craccivoral Mortality (%) 500 ppm (Aphis craccivoral): 100%

CN=C(C(=Cc1ccc(Cl)o1)[N+](=O)[O-])N(C)Cc1ccc(Cl)nc1 [Compound 234]
Nilaparvata lugens Mortality (%) 500 ppm (Nilaparvata lugens): 44% | Aphis craccivoral Mortality (%) 500 ppm (Aphis craccivoral): 37%

CN=C(C(=Cc1ccco1)[N+](=O)[O-])N(C)Cc1ccc(Cl)nc1 [Compound 161]
Nilaparvata lugens Mortality (%) 500 ppm (Nilaparvata lugens): 65% | Aphis craccivoral Mortality (%) 500 ppm (Aphis craccivoral): 100%

CCN(Cc1ccc(Cl)nc1)C(=NC)C(=Cc1ccc(Cl)o1)[N+](=O)[O-] [Compound 182]
Nilaparvata lugens Mortality (%) 500 ppm (Nilaparvata lugens): 100% | Aphis craccivoral Mortality (%) 500 ppm (Aphis craccivoral): 100%

CN=C(C(=Cc1ccc(Cl)s1)[N+](=O)[O-])N(C)Cc1ccc(Cl)nc1 [Compound 169]
Nilaparvata lugens Mortality (%) 500 ppm (Nilaparvata lugens): 67% | Aphis craccivoral Mortality (%) 500 ppm (Aphis craccivoral): 76%

CCN=C(C(=Cc1ccoc1)[N+](=O)[O-])N(CC)Cc1ccc(Cl)nc1 [Compound 190]
Nilaparvata lugens Mortality (%) 500 ppm (Nilaparvata lugens): 100% | Aphis craccivoral Mortality (%) 500 ppm (Aphis craccivoral): 87%

CN=C(C(=Cc1ccc([N+](=O)[O-])o1)[N+](=O)[O-])N(C)Cc1cnc(Cl)s1 [Compound 217]
Nilaparvata lugens Mortality (%) 500 ppm (Nilaparvata lugens): 43% | Aphis craccivoral Mortality (%) 500 ppm (Aphis craccivoral): 77%

CCN(Cc1cnc(Cl)s1)C(=NC)C(=Cc1ccco1)[N+](=O)[O-] [Compound 225]
Nilaparvata lugens Mortality (%) 500 ppm (Nilaparvata lugens): 78% | Aphis craccivoral Mortality (%) 500 ppm (Aphis craccivoral): 90%

CN=C(C(=Cc1ccc([N+](=O)[O-])s1)[N+](=O)[O-])N(C)Cc1cnc(Cl)s1 [Compound 222]
Nilaparvata lugens Mortality (%) 500 ppm (Nilaparvata lugens): 67% | Aphis craccivoral Mortality (%) 500 ppm (Aphis craccivoral): 46%

CCN(Cc1ccc(Cl)nc1)C(=NC)C(=Cc1cccs1)[N+](=O)[O-] [Compound 184]
Nilaparvata lugens Mortality (%) 500 ppm (Nilaparvata lugens): 100% | Aphis craccivoral Mortality (%) 500 ppm (Aphis craccivoral): 98%

CCN(Cc1ccc(Cl)nc1)C(=NC)C(=C(C)c1ccc(Cl)s1)[N+](=O)[O-] [Compound 203]
Nilaparvata lugens Mortality (%) 500 ppm (Nilaparvata lugens): 100% | Aphis craccivoral Mortality (%) 500 ppm (Aphis craccivoral): 100%

CN=C(C(=C(C)c1ccc[nH]1)[N+](=O)[O-])N(C)Cc1ccc(Cl)nc1 [Compound 194]
Nilaparvata lugens Mortality (%) 500 ppm (Nilaparvata lugens): 100% | Aphis craccivoral Mortality (%) 500 ppm (Aphis craccivoral): 98%

CCN=C(C(=Cc1ccco1)[N+](=O)[O-])N(CC)Cc1ccc(Cl)nc1 [Compound 189]
Nilaparvata lugens Mortality (%) 500 ppm (Nilaparvata lugens): 100% | Aphis craccivoral Mortality (%) 500 ppm (Aphis craccivoral): 86%

CN=C(C(=Cc1ccc(Br)o1)[N+](=O)[O-])N(C)Cc1ccc(Cl)nc1 [Compound 165]
Nilaparvata lugens Mortality (%) 500 ppm (Nilaparvata lugens): 100% | Aphis craccivoral Mortality (%) 500 ppm (Aphis craccivoral): 100%

CCN(Cc1cnc(Cl)s1)C(=NC)C(=Cc1ccc([N+](=O)[O-])o1)[N+](=O)[O-] [Compound 227]
Nilaparvata lugens Mortality (%) 500 ppm (Nilaparvata lugens): 100% | Aphis craccivoral Mortality (%) 500 ppm (Aphis craccivoral): 100%

CN=C(NCc1ccc(Cl)nc1)C(=Cc1ccoc1)[N+](=O)[O-] [Compound 152]
Nilaparvata lugens Mortality (%) 500 ppm (Nilaparvata lugens): 64% | Aphis craccivoral Mortality (%) 500 ppm (Aphis craccivoral): 67%

CN=C(C(=Cc1ccc(Cl)s1)[N+](=O)[O-])N(C)Cc1cnc(Cl)s1 [Compound 223]
Nilaparvata lugens Mortality (%) 500 ppm (Nilaparvata lugens): 53% | Aphis craccivoral Mortality (%) 500 ppm (Aphis craccivoral): 65%

CN=C(C(=C(C)c1ccsc1)[N+](=O)[O-])N(C)C(C)c1ccc(Cl)nc1 (centres unmarked) [Compound 213]
Nilaparvata lugens Mortality (%) 500 ppm (Nilaparvata lugens): 68% | Aphis craccivoral Mortality (%) 500 ppm (Aphis craccivoral): 89%

CCN(Cc1cnc(Cl)s1)C(=NC)C(=Cc1ccc[nH]1)[N+](=O)[O-] [Compound 231]
Nilaparvata lugens Mortality (%) 500 ppm (Nilaparvata lugens): 76% | Aphis craccivoral Mortality (%) 500 ppm (Aphis craccivoral): 37%

CN=C(NCc1ccc(Cl)nc1)C(=Cc1ccc(Cl)s1)[N+](=O)[O-] [Compound 159]
Nilaparvata lugens Mortality (%) 500 ppm (Nilaparvata lugens): 67% | Aphis craccivoral Mortality (%) 500 ppm (Aphis craccivoral): 55%

CCN(Cc1cnc(Cl)s1)C(=NC)C(=Cc1ccc([N+](=O)[O-])s1)[N+](=O)[O-] [Compound 229]
Nilaparvata lugens Mortality (%) 500 ppm (Nilaparvata lugens): 75% | Aphis craccivoral Mortality (%) 500 ppm (Aphis craccivoral): 65%

CCN(C(=NC)C(=Cc1cccs1)[N+](=O)[O-])C(C)c1ccc(Cl)nc1 (centres unmarked) [Compound 210]
Nilaparvata lugens Mortality (%) 500 ppm (Nilaparvata lugens): 100% | Aphis craccivoral Mortality (%) 500 ppm (Aphis craccivoral): 100%

CCN=C(C(=Cc1ccc([N+](=O)[O-])o1)[N+](=O)[O-])N(C)Cc1ccc(Cl)nc1 [Compound 172]
Nilaparvata lugens Mortality (%) 500 ppm (Nilaparvata lugens): 100% | Aphis craccivoral Mortality (%) 500 ppm (Aphis craccivoral): 96%

CCN(Cc1ccc(Cl)nc1)C(=NC)C(=C(C)c1cccs1)[N+](=O)[O-] [Compound 200]
Nilaparvata lugens Mortality (%) 500 ppm (Nilaparvata lugens): 100% | Aphis craccivoral Mortality (%) 500 ppm (Aphis craccivoral): 100%

CCN(Cc1ccc(Cl)nc1)C(=NC)C(=Cc1ccoc1)[N+](=O)[O-] [Compound 242]
Nilaparvata lugens Mortality (%) 500 ppm (Nilaparvata lugens): 100% | Aphis craccivoral Mortality (%) 500 ppm (Aphis craccivoral): 100%

CCN(Cc1ccc(Cl)nc1)C(=NC)C(=Cc1ccco1)[N+](=O)[O-] [Compound 179]
Nilaparvata lugens Mortality (%) 500 ppm (Nilaparvata lugens): 100% | Aphis craccivoral Mortality (%) 500 ppm (Aphis craccivoral): 100%

CCN(Cc1ccc(Cl)nc1)C(=NC)C(=Cc1ccc[nH]1)[N+](=O)[O-] [Compound 243]
Nilaparvata lugens Mortality (%) 500 ppm (Nilaparvata lugens): 100% | Aphis craccivoral Mortality (%) 500 ppm (Aphis craccivoral): 96%

CCN=C(C(=Cc1ccc(Cl)s1)[N+](=O)[O-])N(C)Cc1ccc(Cl)nc1 [Compound 177]
Nilaparvata lugens Mortality (%) 500 ppm (Nilaparvata lugens): 100% | Aphis craccivoral Mortality (%) 500 ppm (Aphis craccivoral): 87%

CN=C(C(=Cc1cccs1)[N+](=O)[O-])N(C)Cc1ccc(Cl)nc1 [Compound 166]
Nilaparvata lugens Mortality (%) 500 ppm (Nilaparvata lugens): 100% | Aphis craccivoral Mortality (%) 500 ppm (Aphis craccivoral): 98%

CCN=C(C(=Cc1ccc[nH]1)[N+](=O)[O-])N(C)Cc1ccc(Cl)nc1 [Compound 178]
Nilaparvata lugens Mortality (%) 500 ppm (Nilaparvata lugens): 100% | Aphis craccivoral Mortality (%) 500 ppm (Aphis craccivoral): 100%

CCN=C(C(=Cc1ccc(Br)o1)[N+](=O)[O-])N(C)Cc1ccc(Cl)nc1 [Compound 174]
Nilaparvata lugens Mortality (%) 500 ppm (Nilaparvata lugens): 100% | Aphis craccivoral Mortality (%) 500 ppm (Aphis craccivoral): 100%

CN=C(NCc1ccc(Cl)nc1)C(=Cc1ccsc1)[N+](=O)[O-] [Compound 157]
Nilaparvata lugens Mortality (%) 500 ppm (Nilaparvata lugens): 97% | Aphis craccivoral Mortality (%) 500 ppm (Aphis craccivoral): 100%

CN=C(NCc1ccc(Cl)nc1)C(=Cc1ccc(Br)o1)[N+](=O)[O-] [Compound 155]
Nilaparvata lugens Mortality (%) 500 ppm (Nilaparvata lugens): 36% | Aphis craccivoral Mortality (%) 500 ppm (Aphis craccivoral): 67%

CCN(Cc1cnc(Cl)s1)C(=NC)C(=Cc1ccoc1)[N+](=O)[O-] [Compound 226]
Nilaparvata lugens Mortality (%) 500 ppm (Nilaparvata lugens): 49% | Aphis craccivoral Mortality (%) 500 ppm (Aphis craccivoral): 68%

CCN(C(=NC)C(=Cc1ccc([N+](=O)[O-])o1)[N+](=O)[O-])C(C)c1ccc(Cl)nc1 (centres unmarked) [Compound 207]
Nilaparvata lugens Mortality (%) 500 ppm (Nilaparvata lugens): 100% | Aphis craccivoral Mortality (%) 500 ppm (Aphis craccivoral): 94%

CN=C(C(=Cc1ccc(Cl)o1)[N+](=O)[O-])N(C)Cc1ccc(Cl)nc1 [Compound 164]
Nilaparvata lugens Mortality (%) 500 ppm (Nilaparvata lugens): 100% | Aphis craccivoral Mortality (%) 500 ppm (Aphis craccivoral): 100%

CN=C(C(=Cc1ccc(Br)o1)[N+](=O)[O-])N(C)Cc1cnc(Cl)s1 [Compound 219]
Nilaparvata lugens Mortality (%) 500 ppm (Nilaparvata lugens): 87% | Aphis craccivoral Mortality (%) 500 ppm (Aphis craccivoral): 87%

CCN=C(C(=Cc1ccc(Br)o1)[N+](=O)[O-])N(CC)Cc1ccc(Cl)nc1 [Compound 193]
Nilaparvata lugens Mortality (%) 500 ppm (Nilaparvata lugens): 100% | Aphis craccivoral Mortality (%) 500 ppm (Aphis craccivoral): 89%

CN=C(C(=C(C)c1ccc(Cl)s1)[N+](=O)[O-])N(C)C(C)c1ccc(Cl)nc1 (centres unmarked) [Compound 215]
Nilaparvata lugens Mortality (%) 500 ppm (Nilaparvata lugens): 100% | Aphis craccivoral Mortality (%) 500 ppm (Aphis craccivoral): 100%

CCN(Cc1ccc(Cl)nc1)C(=NC)C(=C(C)c1ccc(Cl)o1)[N+](=O)[O-] [Compound 198]
Nilaparvata lugens Mortality (%) 500 ppm (Nilaparvata lugens): 100% | Aphis craccivoral Mortality (%) 500 ppm (Aphis craccivoral): 86%

CCN(Cc1ccc(Cl)nc1)C(=NC)C(=C(C)c1ccc([N+](=O)[O-])o1)[N+](=O)[O-] [Compound 197]
Nilaparvata lugens Mortality (%) 500 ppm (Nilaparvata lugens): 100% | Aphis craccivoral Mortality (%) 500 ppm (Aphis craccivoral): 98%

CCN(Cc1ccc(Cl)nc1)C(=NC)C(=C(C)c1ccc([N+](=O)[O-])s1)[N+](=O)[O-] [Compound 202]
Nilaparvata lugens Mortality (%) 500 ppm (Nilaparvata lugens): 100% | Aphis craccivoral Mortality (%) 500 ppm (Aphis craccivoral): 100%

CCN(Cc1ccc(Cl)nc1)C(=NC)C(=Cc1ccc[nH]1)[N+](=O)[O-] [Compound 188]
Nilaparvata lugens Mortality (%) 500 ppm (Nilaparvata lugens): 100% | Aphis craccivoral Mortality (%) 500 ppm (Aphis craccivoral): 100%
